Series [1] has as its system conscious spontaneously hypertensive rats (SHR). Description: Antihypertensive activity in rats. The conditions noted are these: orally 5 mg/kg in 5% DMF and 95% olive oil, carotid artery catheter, recorded for 5 hours. The series is classed as in vivo, rat. Here is the method:
The hypotensive effects of compounds according to the invention as identified in table 2 were studied in conscious spontaneously hypertensive rats (SHR). The compounds were administered orally at a dose of 5 mg/kg in a mixture of 5% DMF and 95% olive oil. Blood pressure was measured from a catheter inserted in the carotid artery and recorded for 5 hours after administration. The results are expressed as Area Under the Curve (AUC from 0 to 5 hours, mmHg.hour) of the fall blood pressure over time.

A further series concerns the target T1, human recombinant PDE V (Homo sapiens, UniProt O76074).
T1 construct: purchased ICOS, Seattle USA
Description: Inhibitory effect on cGMP-PDE (one-step assay adapted from Wells et al.). The series is classed as biochemical. The following applies: 0.15 μM 8-[H3]-cGMP, 30 minutes incubation, 2% DMSO. The procedure: The enzyme used was a human recombinant PDE V (ICOS, Seattle USA).
Compounds of the invention were dissolved in DMSO finally present at 2% in the assay.

Series [2] deals with Rat aortic smooth muscle cells (RSMC). Description: cGMP level measurements in ANF-stimulated cells. In kind it is cell-based. The following applies: 30 minutes at 37° C. with compound, then ANF (100 nM) for 10 minutes, c-GMP by scintillation proximity immunoassay. The procedure: Rat aortic smooth muscle cells (RSMC) prepared according to Chamley et al. in Cell Tissue Res. 177 503-522 (1977) were used between the 10th and 25th passage at confluence in 24-well culture dishes. Culture media was aspirated and replaced with PBS (0.5 ml) containing the compound tested at the appropriate concentration. After 30 minutes at 37° C., particulates guanylate cyclase was stimulated by addition of ANF (100 nM) for 10 minutes. At the end of incubation, the medium was withdrawn and two extractions were performed by addition of 65% ethanol (0.25 ml). The two ethanolic extracts were pooled and evaporated until dryness, using a Speed-vac system. c-GMP was measured after acetylation by scintillation proximity immunoassay ([…]).

Structures are written as SMILES.

Take `CN1CC(=O)N2[C@@H](c3ccc4c(c3)CCO4)c3[nH]c4ccccc4c3C[C@@H]2C1=O` (relative stereo) [Example 36, Cis-2,3,6,7,12,12a-Hexahydro-6-(2,3-dihydrobenzo[b]furan-5-yl)-2-methyl-pyrazino[2′,1′:6,1]pyrido[3,4-b]indole-1,4-dione]: the melting point lay within 292 to 294 °C. In series [1], the “AUC PO (fall in blood pressure over time, AUC from 0 to 5 hours)” value is on record as 99 mmHg.h. Further, on human recombinant PDE V, the IC50 is below 0.01 µM. Also, in series [2], the EC50 was found to be 0.5 µM.
In turn, `CN1CC(=O)N2C(Cc3c([nH]c4ccccc34)C2c2ccc(Br)s2)C1=O` (stereo not drawn) [Example 52, Cis-2,3,6,7,12,12a-Hexahydro-65-bromo-2-thienyl)-2-methyl-pyrazino[2′,1′:6,1]pyrido[3,4-b]indole-1,4-dione] displayed a melting point of 258 °C. Moreover, the IC50 on human recombinant PDE V worked out at 0.02 µM. Also, the EC50 in series [2] amounted to 0.8 µM.
`CCCCN1CC(=O)N2C(Cc3c([nH]c4ccccc34)C2c2ccc(C)cc2)C1=O` (stereo not drawn) [Example 63, Cis-2 3,6,7,12,12a-Hexahydro-2-butyl-6-(4-methylphenyl)-pyrazino[2′,1′:6,1]pyrido[3,4-b]indole-1,4-dione]: the melting point is 194 °C. For the same compound, in series [1], the “AUC PO (fall in blood pressure over time, AUC from 0 to 5 hours)” value was found to be 95 mmHg.h. On human recombinant PDE V, the IC50 was 0.03 µM. For the same compound, the half-maximal effective concentration (EC50) in series [2] was found to be 0.35 µM.
Taken in the same sequence, the figures for `CC(C)N1CC(=O)N2[C@H](c3ccc4c(c3)OCO4)c3[nH]c4ccccc4c3C[C@@H]2C1=O` [Example 79, (6R,12aR)-2,3,6,7,12,12a-Hexahydro-2-isopropyl-6-(3,4-methylenedioxyphenyl)-pyrazino[2′,1′:6,1]pyrido[3,4-b]indole-1,4-dione] were 290 to 293 °C, 171 mmHg.h, below 0.01 µM and 0.15 µM.
Taken in the same sequence, the figures for `O=C1[C@H]2Cc3c([nH]c4ccccc34)[C@@H](c3ccc4c(c3)OCO4)N2C(=O)CN1C1CCCC1` [Example 82, (6R,12aR)-2,3,6,7,12,12a-Hexahydro-2-cyclopentyl-6-(3,4-methylenedioxyphenyl)-pyrazino[2′,1′:6,1pyrido3,4-b]indole-1,4-dione] were 237 to 239 °C, 111 mmHg.h, 0.02 µM and 0.5 µM.
For `COc1ccc([C@@H]2c3[nH]c4ccccc4c3C[C@@H]3C(=O)N(CC4CC4)CC(=O)N23)cc1` [Example 84, (6R,12aR)-2,3,6,7,12,12a-Hexahydro-2-cyclopropylmethyl-6-(4-methoxyphenyl)-pyrazino[2′,1′:6.1]pyrido[3,4-b]indole-1,4-dione], in that order: 204 to 205 °C, 77 mmHg.h, 0.01 µM and 0.4 µM.
In the case of `COc1ccc([C@@H]2c3[nH]c4ccccc4c3C[C@@H]3C(=O)N(C)CC(=O)N23)cc1Cl` [Example 89], the melting point was in the range of 283 to 284 °C. The “AUC PO (fall in blood pressure over time, AUC from 0 to 5 hours)” value in series [1] is given as 117 mmHg.h. Further, the IC50 on human recombinant PDE V turned out to be 0.01 µM. The EC50 in series [2] is below 0.1 µM.
`CN1CC(=O)N2[C@H](c3ccc4c(c3)OCO4)c3[nH]c4ccccc4c3C[C@@H]2C1=O` [Example 95, (6R,12aR)-2,3,6,7,12,12a-Hexahydro-2-methyl-6-(3,4-methylenedioxyphenyl)-pyrazino[2′,1′:6,1]pyrido[3,4-b]indole-1,4-dione]: the “AUC PO (fall in blood pressure over time, AUC from 0 to 5 hours)” value in series [1] is reported as 135 mmHg.h. The EC50 in series [2] amounted to 0.2 µM.
As to `O=C1NCC(=O)N2[C@H](c3ccc4c(c3)OCO4)c3[nH]c4ccccc4c3C[C@H]12` [Example 101, (6R,12aR)-2,3,6,7,12,12a-Hexahydro-4-(3,4-methylenedioxyphenyl)-pyrazino[2′,1′:6,1]pyrido [3,4-b]indole-1,4-dione], the melting point lay within 285 to 290 °C. The “AUC PO (fall in blood pressure over time, AUC from 0 to 5 hours)” value in series [1] is 136 mmHg.h. Further, the IC50 on human recombinant PDE V was 0.01 µM. The concentration for a half-maximal effect (EC50) in series [2] was determined as 0.3 µM.
The compound `O=C1[C@H]2Cc3c([nH]c4ccccc34)[C@@H](c3ccc4c(c3)OCO4)N2C(=O)[C@@H]2CCCN12` [Example 115, (5aR, 12R,14aS)-1,2,3,5,6,11,12,14a-Octahydro-12-(3,4-methylenedioxyphenyl)-pyrrolo[1″,2″:4′,5′]pyrazino[2′,1′:6,1]pyrido[3,4-b]indole-5-1,4-dione] came in with a melting point of 302 to 304 °C. In addition, the IC50 on human recombinant PDE V was below 0.01 µM. Also, the EC50 in series [2] was 0.4 µM.

By melting point is commonly meant the temperature, or range, at which the solid turns liquid. Usually IC50 stands for the concentration needed to halve the response being measured. A word on the EC50: it is the concentration giving half of the maximal effect.

The values above are taken from patent publication US6369059B1, “Tetracyclic derivatives, process of preparation and use” (ICOS Corporation, priority 1994, dated 2002).
